In data set [1] the test system is melanoma cell line B16F10. The data set can be described thus: Cytotoxicity evaluation by MTT assay. The format is cell-based. To be noted: B16F10 cells, 24 hours treatment at each concentration, FIG. 4. As for the experimental part: In order to evaluate the cytotoxicity of Ab-VC-AMB prepared in Example 1, a melanoma cell line B16F10 (1×10^4) was attached to a 96-well plate, and after 24 hours, and the cell line was treated with Ab, AMB, AMB+Ab, and Ab-VC-AMB at each concentration, respectively. After 24 hours, the number of living cells was calculated by MTT assay. For this, 5 mg/ml MTT reagent was diluted 1/10 in the medium, and then 200 μl was added to each well of the 96-well plate. After the cells were cultured in an incubator for 1.5 hours, the MTT reagent was removed, and 200 μl of DMSO was added to each well of the 96-well plate. After the cells were cultured at room temperature for 30 minutes, cell viability was calculated by confirming the absorbance at 570 nm.

Data set [2] concerns major organs (liver, lungs, spleen, kidneys, and heart) and cancer tissue. Put plainly: Histopathological evaluation by H&E staining. The format is in vivo, mice. To be noted: cancer tissue compared to the control, FIG. 8. The protocol:
A histopathological evaluation was performed by removing major organs and cancer tissue and staining the tissue by a hematoxylin and eosin (H&E) staining method. For this purpose, the major organs (liver, lungs, spleen, kidneys, and heart) and cancer tissue were removed, placed in a cassette, and fixed in a fixative solution. Then, after a paraffin block was prepared, a sample was prepared with a thickness of 6 μm. After the sample was stained with a Harris hematoxylin staining solution and an eosin-phloxine staining solution, the sample was observed through a slide scanner.

Data set [3] concerns PD-L1 on the surface of exosomes. Put plainly: Exosomal PD-L1 quantified by ELISA. It is filed as in vivo, mice. As to conditions: plasma exosomes after efficacy study, compared to the other groups, FIG. 10. The protocol:
(§1) To evaluate the ability of Ab-VC-AMB prepared in Example 1 to inhibit the secretion of exosomes, after the animal model for which the therapeutic efficacy evaluation was completed was sacrificed, plasma was isolated, and exosomes were isolated and extracted using an exosome isolation kit (Invitrogen total exosome isolation reagent). The amount of protein was measured by performing BCA analysis (bicinchoninic acid assay) on the isolated exosomes. Albumin standards diluted to various concentrations and 150 μl of an unknown sample whose protein amount was not known were put into a 96-well plate, respectively. 150 μl of a working reagent containing bicinchoninic acid from a BCA protein […] kit (Pierce) was placed in each well containing each sample, and the resulting mixture was shaken and mixed well, and then incubated at 37° C. for 2 hours. Thereafter, the protein concentration of exosomes was calculated by measuring the absorbance at 562 nm using a microplate reader.
In addition, PD-L1 on the surface of exosomes, which is a factor known to suppress the activity of T cells, was quantified through ELISA analysis. A 96-well plate was coated with 2 μg/ml PD-L1 antibody incubated at 4° C. for 16 hours […]. […] Absorbance at 450 nm was measured using a microplate reader.
In general terms: ELISA stands for enzyme-linked immunosorbent assay.

The subject of the next data set is exosomes in plasma. The data set can be described thus: Exosomal total protein amount in plasma exosomes (BCA analysis). It is filed as in vivo, mice. To be noted: plasma exosomes after efficacy study, compared to the Ab control, FIG. 9. As for the experimental part: as §1
The test system of another data set is B16F10 melanoma tumors. Put plainly: Therapeutic efficacy (tumor volume) in B16F10 cancer animal model. The format is in vivo. As to conditions: B16F10 mice, FIGS. 5 and 6. As for the experimental part: (§2) In order to evaluate the therapeutic efficacy of Ab-VC-AMB prepared in Example 1 in a disease animal model, a cancer animal model was produced by subcutaneously inoculating B16F10 (1×10^6 cells), which is a melanoma cell line, into mice and allowing tumors to grow for 10 days (Day 0). Thereafter, on days 1, 4, 7 and 10, Ab-VC-AMB, saline, an antibody (Ab) or AMB was injected intravenously into the cancer animal model (Ab 5 mg/kg, AMB 10 mg/kg, Ab-VC-AMB 5 mg/kg), and then the therapeutic efficacy was evaluated for 11 days.

On the set-up of data set [4]: species or system mice. As to conditions: mouse, in vivo, iv. The protocol: as §2

The structures appear in SMILES notation.

In the case of `COC(c1ccccc1)(c1ccccc1)[C@H](Oc1nc(C)cc(C)n1)C(=O)O` [AMB, ambrisentan, reference compound], the “cytotoxicity (cell viability)” value in data set [1] is on record as “does not have a direct relationship with toxicity affecting cells”.
Consider `COC(c1ccccc1)(c1ccccc1)C(Oc1nc(C)cc(C)n1)C(=O)OCc1ccc(NC(=O)C(CCCNC(N)=O)CC(=O)C(NC(=O)CCCCCN2C(=O)CC(SC)C2=O)C(C)C)cc1` (centres unmarked) [Ab-VC-AMB], for which, in data set [2], the “cell death area in the cancer tissue (H&E)” value is recorded as “a large cell death area in the cancer tissue was observed compared to the control”. Moreover, the “exosomal PD-L1 level” value in data set [3] was “tendency to decrease remarkably”. Further, the “cytotoxicity (cell viability)” value in data set [1] is recorded as “high biocompatibility”. Further, the “amount of exosomal protein” value in the data set on exosomes in plasma was “statistically significant low amount of exosomal protein compared to the Ab control”. Moreover, in the data set with B16F10 melanoma tumors (i.v. on days 1, 4, 7 and 10, Ab-VC-AMB 5 mg/kg vs Ab 5 mg/kg, 11 days), the “volume of cancer compared to the Ab control” value is “about 45%”. Moreover, the “cancer volume compared to the control to which saline was administered” value with B16F10 melanoma tumors (i.v. on days 1, 4, 7 and 10, Ab-VC-AMB 5 mg/kg, evaluated for 11 days) is on record as 24%. The “changes in body weight (toxicity)” value in data set [4] is recorded as “does not show toxicity”.

The values above are taken from patent publication US20230094832A1, “ANTIBODY-DRUG CONJUGATE COMPRISING IMMUNE CHECKPOINT INHIBITOR AND EXOSOME SECRETION INHIBITOR, AND PHARMACEUTICAL COMPOSITION COMPRISING SAME” (Research & Business Foundation Sungkyunkwan University, priority 2020, published 2023).
